Assay in all cases: growth of human tumour cells (NCI), 48 h
Test [1] has as its system A549 NSCLC.
In test [2] the test system is HCC-2998 colon.
Test [3] concerns HCT-15 colon.
Test [4] deals with HS 578T breast.
Test [5] deals with IGROV1 ovarian.
Test [6] relates to MOLT-4 leukemia.
Test [7] deals with NCI-H460 lung.
Test [8] concerns NCI-H522 lung.
The test system of test [9] is SF-268 CNS.
The subject of test [10] is SK-OV-3 ovarian.

Several values for one entry are separate records, joined by “and”; a condition that tells them apart may be missing. Equal values may be shown once.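 Values below derive from 48-hour exposures of cells grown in 96-well plates, with endpoints linearly interpolated between the two concentrations bracketing the appropriate inhibition level. Here, GI50 denotes the concentration required for 50% inhibition of growth. At the TGI there is no net growth.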

`COc1ccccc1-c1cc2c3c(nc4ccccc42)C(=O)c2cccnc2-c3n1`: the GI50 was 10 µM in test [1]; 14.8 µM in test [2]; 3.55 µM in test [3]; 17.9 µM in test [4]; 3.78 µM in [5]; more than 42.6 µM in [6]. In addition, the GI50 in [7] is 11.5 µM; in [8] it was 1.65 µM; in test [9], 17.6 µM; in test [10], 20.8 µM. Further, the TGI in test [1] is 24 µM; in test [2], 30.6 µM; in test [3], 8.62 µM; in test [4] it was 37.9 µM; in test [5], 18.1 µM; in test [6] it was more than 100 µM. Further, the TGI was 26 µM in test [7], 5.23 µM in test [8], 38.9 µM in [9] and 51.2 µM in [10].

Consider `O=C1C(=O)c2ccc(Br)cc2-c2cc(Br)ccc21`, for which the GI50 was 5.37 µM in test [1]; 21.3 µM in test [2]; 1.28 µM in [3]; 8.27 µM in [4]; 6.57 µM in [5]; 0.522 µM in [6]. Besides, the GI50 was 4.5 µM in test [7], 0.407 µM in test [8], 1.35 µM in test [9] and 29.1 µM in test [10]. Also, the TGI is more than 95.6 µM in test [1]; more than 100 µM in [2]; more than 35 µM in test [3]; more than 78.9 µM in test [4]; 29.5 µM in [5]; 1.66 µM in [6]. For the same compound, the TGI was more than 89.2 µM in test [7], 1.74 µM in test [8], 8.58 µM in test [9] and more than 87.5 µM in test [10].

Turning to `OCCN1CCN(CCCN2c3ccccc3Sc3ccc(C(F)(F)F)cc32)CC1`, the GI50 is 2.79 µM and 10.8 µM and 9.54 µM in test [1]; 0.824 µM and 2.75 µM and 1.97 µM in test [2]; 1.97 µM and 4.22 µM and 3.7 µM in test [3]; 1.86 µM and 13.5 µM and 8.23 µM in test [4]; 2.57 µM and 11.3 µM and 10.2 µM in [5]; 2.35 µM and 9.23 µM and 2.83 µM in test [6]. The GI50 is 1.82 µM and 9.47 µM and 4.83 µM in test [7]; 5.2 µM and 11.5 µM in [9]; 5.55 µM and 14.5 µM and 13.3 µM in test [10]. Also, the TGI is 9.84 µM and 24 µM and 22.9 µM in test [1]; 1.6 µM and 7.99 µM and 4.21 µM in test [2]; 6.88 µM and 18.3 µM and 15 µM in test [3]; 13.1 µM and 60.6 µM and 41.6 µM in [4]; 9.32 µM and 28.5 µM and 30.1 µM in test [5]; 8.44 µM and 27 µM and 8.49 µM in test [6]. Also, the TGI in test [7] was 6.69 µM and 28.4 µM and 23.3 µM; in [8] it was 3.49 µM and 30.1 µM and 26.8 µM; in test [9], 11.5 µM and 24.5 µM; in [10], 11.7 µM and 29.1 µM and 27.3 µM.

With `COc1ccc2c(c1)O/C(=C\c1cccc(OCC(=O)Nc3nc4ccccc4s3)c1)C2=O`, the GI50 was 39.8 µM in [1]; more than 100 µM in test [2]; 13.9 µM in test [3]; 13.8 µM in test [4]; 0.121 µM in [5]; 3.33 µM in test [6]. The GI50 in test [7] is more than 64.4 µM; in test [8], 0.718 µM; in test [9] it was 4.83 µM; in [10] it was more than 100 µM. The TGI in [1] is more than 100 µM; in test [2] it was more than 100 µM; in test [3], more than 100 µM; in test [4] it was 70.1 µM; in test [5], 0.303 µM; in test [6] it was 20.2 µM. The TGI in [7] was more than 100 µM; in test [8] it was 2.74 µM; in [9], 11 µM; in test [10], more than 100 µM.

With `O=S(=O)(Nc1ccc(-c2nc(-c3cccc(OCCN4CCOCC4)c3)c(-c3ccnc(Br)c3)[nH]2)cc1)c1ccccc1`, the GI50 in [1] was 3.35 µM; in test [2], 1.85 µM; in test [3], 1.74 µM; in test [4], 1.47 µM; in test [5], 3.98 µM; in test [6], 2.59 µM. Further, the GI50 was 3.45 µM in [7], 3.14 µM in test [8], 4.23 µM in [9] and 3.81 µM in test [10]. Besides, the TGI is more than 100 µM in test [1]; 3.71 µM in test [2]; 6.79 µM in test [3]; 4.37 µM in [4]; more than 100 µM in test [5]; more than 100 µM in [6]. Moreover, the TGI in test [7], in test [8], in [9] and in test [10] was more than 100 µM each time.

Regarding `C[C@@H]1O[C@@H](O[C@H]2C[C@@H](O)[C@]3(CO)C4C(CC[C@]3(O)C2)[C@@]2(O)CC[C@H](C3=CC(=O)OC3)[C@@]2(C)C[C@H]4O)[C@H](O)[C@H](O)[C@H]1O` (some centres undefined), the GI50 in test [1] is 0.00907 µM; in test [2], 0.088 µM; in test [3], 0.0372 µM; in test [4], 0.0182 µM; in test [5], 0.0273 µM; in test [6] it was 0.0128 µM. Further, the GI50 in test [7] was 0.0133 µM; in test [8], 0.0117 µM; in [9], 0.0189 µM; in [10] it was 0.0203 µM. In addition, the TGI in [1] was found to be 0.0172 µM; in test [2], 0.238 µM; in test [3], 0.114 µM; in test [4], 4.32 µM; in test [5] it was 0.23 µM; in [6], 0.0314 µM. Besides, the TGI in test [7] was 0.0376 µM; in [8], 0.0323 µM; in [9], 0.0642 µM; in test [10] it was 0.0731 µM.

Source of the values: PubChem BioAssay (NCI).
